Series [1] has as its target T1, Pgp (Homo sapiens, UniProt P08183). The experiment in a line: Rhodamine efflux from circulating CD56+ cells of patients.
The nature of series [2]: Vinorelbine pharmacokinetics in patients, alone and with tariquidar. Particulars: for effect of tariquidar on vinorelbine pharmacokinetics: tariquidar 150 mg before vinorelbine. It is filed as in vivo, human.
The nature of series [3]: Tariquidar pharmacokinetics in patients. It is filed as in vivo, human. Particulars: for concentration at 24 h / concentration at 48 h: intravenous, mean plasma concentration.
Series [4] concerns the target T1, Pgp. The experiment in a line: 99mTc-sestamibi scanning at baseline and after tariquidar. It is filed as in vivo.
Series [5] deals with T1, Pgp. Particulars: 150 mg tariquidar; cited from earlier work.
In series [6] the test system is multidrug-resistant human tumor cell lines. To be noted: in vitro; cited from earlier work.
The test system of series [7] is Pgp. Particulars: cited from earlier work.
For series [8] the following is noted: cited from earlier work.
The mark [9] stands for this setting: cycle 2, 150 mg i.v. over 30 min, individual patients.
[10] abbreviates: vinorelbine after tariquidar (post), individual patients.
Where [11] appears, read: vinorelbine after tariquidar, eight patients.
Where [12] appears, read: vinorelbine alone (pre), individual patients.
Setting [13] is: vinorelbine alone, eight patients.

Values joined by “and” are separate entries in the source; they are usually repeats but may differ in a detail not shown here. Equal values may be shown once. “Also recorded” adds a separate entry of the source.

We go through four compounds from publication PMC7213754 (Clinical cancer research : an official journal of the …, 2009).

T1 sequence (P08183 whole entry): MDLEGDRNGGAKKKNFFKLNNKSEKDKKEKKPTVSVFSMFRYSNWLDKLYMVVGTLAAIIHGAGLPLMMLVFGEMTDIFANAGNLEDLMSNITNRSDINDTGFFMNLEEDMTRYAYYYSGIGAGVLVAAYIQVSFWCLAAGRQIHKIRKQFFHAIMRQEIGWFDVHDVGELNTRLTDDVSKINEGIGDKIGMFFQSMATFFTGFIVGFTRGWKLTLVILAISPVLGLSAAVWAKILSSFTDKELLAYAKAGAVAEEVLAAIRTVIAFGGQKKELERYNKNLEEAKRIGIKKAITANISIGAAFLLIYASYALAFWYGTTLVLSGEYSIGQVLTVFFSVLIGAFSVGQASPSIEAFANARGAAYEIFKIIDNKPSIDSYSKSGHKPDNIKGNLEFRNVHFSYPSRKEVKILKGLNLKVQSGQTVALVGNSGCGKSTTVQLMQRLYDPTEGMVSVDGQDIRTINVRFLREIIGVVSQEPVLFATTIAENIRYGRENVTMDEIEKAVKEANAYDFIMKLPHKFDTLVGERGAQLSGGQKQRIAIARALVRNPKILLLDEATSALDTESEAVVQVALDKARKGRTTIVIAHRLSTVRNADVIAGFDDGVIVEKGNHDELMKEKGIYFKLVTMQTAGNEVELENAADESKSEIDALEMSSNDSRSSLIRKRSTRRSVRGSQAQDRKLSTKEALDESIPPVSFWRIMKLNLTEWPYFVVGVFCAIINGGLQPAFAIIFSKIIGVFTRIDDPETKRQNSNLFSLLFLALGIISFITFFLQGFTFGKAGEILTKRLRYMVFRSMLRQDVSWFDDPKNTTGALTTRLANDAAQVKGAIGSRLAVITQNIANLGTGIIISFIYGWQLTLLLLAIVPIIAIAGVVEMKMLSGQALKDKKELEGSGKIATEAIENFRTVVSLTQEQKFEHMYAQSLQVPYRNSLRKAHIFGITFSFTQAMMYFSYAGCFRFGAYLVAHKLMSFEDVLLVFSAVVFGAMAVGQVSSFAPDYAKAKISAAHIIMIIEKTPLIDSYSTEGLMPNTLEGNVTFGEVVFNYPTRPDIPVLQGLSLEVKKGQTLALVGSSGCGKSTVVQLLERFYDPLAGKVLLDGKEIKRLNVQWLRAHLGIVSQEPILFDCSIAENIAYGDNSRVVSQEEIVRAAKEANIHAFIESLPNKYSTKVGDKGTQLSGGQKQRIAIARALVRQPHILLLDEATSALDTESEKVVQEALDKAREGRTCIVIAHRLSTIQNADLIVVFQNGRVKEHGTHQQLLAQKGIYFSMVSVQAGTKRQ

Turning to `C/C=C/C[C@@H](C)C(=O)[C@H]1C(=O)N[C@@H](C(C)C)C(=O)N(C)CC(=O)N(C)[C@@H](CC(C)C)C(=O)N[C@@H](C(C)C)C(=O)N(C)[C@@H](CC(C)C)C(=O)N[C@@H](C)C(=O)N[C@H](C)C(=O)N(C)[C@@H](CC(C)C)C(=O)N(C)[C@@H](CC(C)C)C(=O)N(C)[C@@H](C(C)C)C(=O)N1C` [PSC833, valspodar], at Pgp [1] (added exogenously to blood sample), the “rhodamine efflux from CD56+ cells with exogenously added inhibitor” value is reported as “completely blocked”.
As to `COc1cc2c(cc1OC)CN(CCc1ccc(NC(=O)c3cc(OC)c(OC)cc3NC(=O)c3cnc4ccccc4c3)cc1)CC2` [tariquidar], the entries for the “effect of tariquidar on vinorelbine pharmacokinetics” value in series [2] and in series [2] (listed as Tariquidar) were “no apparent effect of tariquidar on the disposition of vinorelbine; also recorded: did not affect the pharmacokinetics of vinorelbine” and “no effects on vinorelbine pharmacokinetics”, respectively. Besides, the “difference in drug exposure between 2 patients” value in series [3] (150 mg tariquidar) was above 7 fold. Besides, the Clearance in series [3] (setting [9]) was 170 mL/min and 312 mL/min and 559 mL/min and 309 mL/min and 249 mL/min and 302 mL/min and 444 mL/min and 784 mL/min and 221 mL/min and 269 mL/min and 623 mL/min and 166 mL/min and 83 mL/min and 129 mL/min and 111 mL/min and 137 mL/min and 108 mL/min and 191 mL/min; in series [3] (human, plasma, iv, 150 mg, Clearance, median, cycle 2, 150 mg i.v. over 30 min, 18 patients), 235 mL/min; in [3] (human, plasma, iv, 150 mg, mean (±SD) clearance, 150 mg i.v.) it was 287 ± 196 mL/min. Further, the Cmax (commonly the maximum level reached in the sampled fluid or tissue) is 1,551 ng/mL and 1,317 ng/mL and 963 ng/mL and 1,362 ng/mL and 1,102 ng/mL and 582 ng/mL and 1,168 ng/mL and 516 ng/mL and 912 ng/mL and 911 ng/mL and 622 ng/mL and 5,793 ng/mL and 3,632 ng/mL and 1,266 ng/mL and 6,113 ng/mL and 4,628 ng/mL and 2,207 ng/mL and 1,008 ng/mL in series [3] (setting [9]); 1220 ng/mL in series [3] (human, plasma, iv, 150 mg, Cmax, median, cycle 2, 150 mg i.v. over 30 min, 18 patients). The Half-life in series [3] (setting [9]) was 27.2 h and 33.2 h and 17.5 h and 25.5 h and 27.6 h and 43.8 h and 15.7 h and 14.2 h and 42.2 h and 23.8 h and 19.2 h and 32.9 h and 63.1 h and 44.4 h and 45.0 h and 50.6 h and 35.8 h; in series [3] (human, plasma, iv, 150 mg, Half-life, median, cycle 2, 150 mg i.v. over 30 min, 18 patients), 33 h; in series [3] (human, plasma, iv, 150 mg, mean (±SD) terminal half-life, 150 mg i.v.), 33.6 ± 13.5 h. For the same compound, in series [3] (setting [9]), the Vdss (in general, the apparent volume that relates the amount in the body to the concentration in plasma or blood) is 136 L and 343 L and 248 L and 206 L and 199 L and 661 L and 142 L and 348 L and 439 L and 553 L and 604 L and 82.3 L and 85.1 L and 447 L and 274 L and 234 L and 317 L and 247 L. In addition, the concentration at 24 h in [3] (human, plasma, 150 mg, cycle 1) worked out at 119 ng/mL; in series [3] (human, plasma, 150 mg, cycle 2) it was 121 ng/mL. Moreover, the concentration at 48 h is 79.4 ng/mL in series [3] (human, plasma, 150 mg, cycle 1) and 69.5 ng/mL in [3] (human, plasma, 150 mg, cycle 2). Also, the Vd (as a rule, the apparent volume that relates the amount in the body to the concentration in plasma or blood) in [3] (human, plasma, iv, 150 mg, Vdss, median, cycle 2, 150 mg i.v. over 30 min, 18 patients) amounted to 261 L. The “effect on liver 99mTc-sestamibi clearance” value at Pgp [4] (150-mg dose) is reported as “reduced liver 99mTc-sestamibi clearance”. On Pgp [4] (baseline versus after tariquidar, all study patients), the “difference in mean 99mTc-sestamibi AUC in heart, lungs and liver” value is recorded as “Large differences were noted in Pgp-expressing liver but not in the heart nor in the lungs”. Moreover, the tolerability entry (in vivo) was “well-tolerated”. Further, the “mean change of 99mTc-sestamibi accumulation and retention in the liver” value on Pgp [5] is “+128%”. The “duration of action after removal of drug from the culture medium” value in series [6] is recorded as “at least 22 hours”. For the same compound, the “mode of inhibition of Pgp transport” value with Pgp [7] is listed as “noncompetitive”. The “transport substrate of Pgp” value in the series on Pgp [7] was “not a transport substrate of Pgp”. Also, on Pgp [1] (8, 24 and 48 h after 150 mg i.v.), the “Pgp block by i.v. tariquidar compared with exogenous PSC833” value is recorded as “as effective in blocking Pgp as an excess of PSC833 added exogenously”.
Turning to `O[C@@H](COc1cccc2ncccc12)CN1CCN([C@@H]2c3ccccc3[C@@H]3[C@H](c4ccccc42)C3(F)F)CC1` [zosuquidar], the “effect of zosuquidar on vinorelbine clearance” value in [8] (phase I study) was “may inhibit vinorelbine clearance to a modest degree”.
In the case of `CCC1=C[C@@H]2CN(C1)Cc1c([nH]c3ccccc13)[C@@](C(=O)OC)(c1cc3c(cc1OC)N(C)[C@H]1[C@@](O)(C(=O)OC)[C@H](OC(C)=O)[C@]4(CC)C=CCN5CC[C@]31[C@@H]54)C2` [vinorelbine], in series [2] (setting [10]), the “Clearance Post” value was 518 mL/min/m^2 and 536 mL/min/m^2 and 555 mL/min/m^2 and 1,097 mL/min/m^2 and 589 mL/min/m^2 and 617 mL/min/m^2 and 477 mL/min/m^2 and 462 mL/min/m^2; the “t1/2 Post” value is 23 h and 51 h and 21 h and 43 h and 36 h and 58 h. Further, in series [2] (setting [11]), the “Clearance Post, median and range” value is 546 mL/min/m^2 and 462-1,097 mL/min/m^2; the “t1/2 Post, median and range” value lay within 21 to 58 h. The “AUC0-∞ Pre” value in series [2] (vinorelbine alone (pre), i.v. bolus 20 or 22.5 mg/m^2, individual patients) is 844 ng·h/mL and 635 ng·h/mL and 511 ng·h/mL and 838 ng·h/mL and 603 ng·h/mL and 758 ng·h/mL and 756 ng·h/mL. For the same compound, in series [2] (setting [12]), the “Clearance Pre” value is 600 mL/min/m^2 and 444 mL/min/m^2 and 591 mL/min/m^2 and 652 mL/min/m^2 and 398 mL/min/m^2 and 553 mL/min/m^2 and 495 mL/min/m^2 and 496 mL/min/m^2; the “t1/2 Pre” value is 22 h and 19 h and 28 h and 48 h and 21 h and 37 h and 36 h. In series [2] (setting [13]), the “AUC0-∞ Pre, median and range” value fell in the range of 511 to 844 ng·h/mL; the “Clearance Pre, median and range” value was 524 mL/min/m^2 and 398-652 mL/min/m^2; the “t1/2 Pre, median and range” value lay in the range of 18 to 48 h. Moreover, the “effect of vinorelbine on tariquidar pharmacokinetics” value in [3] (human, in vivo) is “no effect on tariquidar pharmacokinetics”. The “maximum tolerated dose of vinorelbine in the combination” value (days 1 and 8 every 21 d with tariquidar 150 mg, without filgrastim) is reported as 20 mg/m^2. In addition, the “dose of vinorelbine felt to be tolerable with zosuquidar” value in [8] (i.v. weekly for 3 weeks every 28 days) is recorded as 22.5 mg/m^2.
